Legend:
Type in all cases: functional
Settings in all cases: read-out: Activity
CCRF-CEM = assay: Growth inhibition of human CCRF-CEM cells assessed as cell growth at 10 uM incubated for 48 hrs by sulforhodamine B assay relative to control
HL-60(TB) = assay: Growth inhibition of human HL-60(TB) cells assessed as cell growth at 10 uM incubated for 48 hrs by sulforhodamine B assay relative to control
K562 = assay: Growth inhibition of human K562 cells assessed as cell growth at 10 uM incubated for 48 hrs by sulforhodamine B assay relative to control
MOLT-4 = assay: Growth inhibition of human MOLT-4 cells assessed as cell growth at 10 uM incubated for 48 hrs by sulforhodamine B assay relative to control
RPMI-8226 = assay: Growth inhibition of human RPMI-8226 cells assessed as cell growth at 10 uM incubated for 48 hrs by sulforhodamine B assay relative to control
HOP-62 = assay: Growth inhibition of human HOP-62 cells assessed as cell growth at 10 uM incubated for 48 hrs by sulforhodamine B assay relative to control
NCI-H23 = assay: Growth inhibition of human NCI-H23 cells assessed as cell growth at 10 uM incubated for 48 hrs by sulforhodamine B assay relative to control
NCI-H322M = assay: Growth inhibition of human NCI-H322M cells assessed as cell growth at 10 uM incubated for 48 hrs by sulforhodamine B assay relative to control
NCI-H522 = assay: Growth inhibition of human NCI-H522 cells assessed as cell growth at 10 uM incubated for 48 hrs by sulforhodamine B assay relative to control
COLO 205 = assay: Growth inhibition of human COLO 205 cells assessed as cell growth at 10 uM incubated for 48 hrs by sulforhodamine B assay relative to control
HCC 2998 = assay: Growth inhibition of human HCC 2998 cells assessed as cell growth at 10 uM incubated for 48 hrs by sulforhodamine B assay relative to control
HCT-116 = assay: Growth inhibition of human HCT-116 cells assessed as cell growth at 10 uM incubated for 48 hrs by sulforhodamine B assay relative to control
HCT-15 = assay: Growth inhibition of human HCT-15 cells assessed as cell growth at 10 uM incubated for 48 hrs by sulforhodamine B assay relative to control
HT-29 = assay: Growth inhibition of human HT-29 cells assessed as cell growth at 10 uM incubated for 48 hrs by sulforhodamine B assay relative to control
KM12 = assay: Growth inhibition of human KM12 cells assessed as cell growth at 10 uM incubated for 48 hrs by sulforhodamine B assay relative to control
SF-268 = assay: Growth inhibition of human SF-268 cells assessed as cell growth at 10 uM incubated for 48 hrs by sulforhodamine B assay relative to control
SF-539 = assay: Growth inhibition of human SF-539 cells assessed as cell growth at 10 uM incubated for 48 hrs by sulforhodamine B assay relative to control
SNB-19 = assay: Growth inhibition of human SNB-19 cells assessed as cell growth at 10 uM incubated for 48 hrs by sulforhodamine B assay relative to control
SNB-75 = assay: Growth inhibition of human SNB-75 cells assessed as cell growth at 10 uM incubated for 48 hrs by sulforhodamine B assay relative to control
U-251 = assay: Growth inhibition of human U-251 cells assessed as cell growth at 10 uM incubated for 48 hrs by sulforhodamine B assay relative to control
Malme-3M = assay: Growth inhibition of human Malme-3M cells assessed as cell growth at 10 uM incubated for 48 hrs by sulforhodamine B assay relative to control
M14 = assay: Growth inhibition of human M14 cells assessed as cell growth at 10 uM incubated for 48 hrs by sulforhodamine B assay relative to control
MDA-MB-435 = assay: Growth inhibition of human MDA-MB-435 cells assessed as cell growth at 10 uM incubated for 48 hrs by sulforhodamine B assay relative to control
SK-MEL-2 = assay: Growth inhibition of human SK-MEL-2 cells assessed as cell growth at 10 uM incubated for 48 hrs by sulforhodamine B assay relative to control
UACC-62 = assay: Growth inhibition of human UACC-62 cells assessed as cell growth at 10 uM incubated for 48 hrs by sulforhodamine B assay relative to control
IGROV-1 = assay: Growth inhibition of human IGROV-1 cells assessed as cell growth at 10 uM incubated for 48 hrs by sulforhodamine B assay relative to control
OVCAR-3 = assay: Growth inhibition of human OVCAR-3 cells assessed as cell growth at 10 uM incubated for 48 hrs by sulforhodamine B assay relative to control
OVCAR-5 = assay: Growth inhibition of human OVCAR-5 cells assessed as cell growth at 10 uM incubated for 48 hrs by sulforhodamine B assay relative to control
OVCAR-8 = assay: Growth inhibition of human OVCAR-8 cells assessed as cell growth at 10 uM incubated for 48 hrs by sulforhodamine B assay relative to control
SK-OV-3 = assay: Growth inhibition of human SK-OV-3 cells assessed as cell growth at 10 uM incubated for 48 hrs by sulforhodamine B assay relative to control
ACHN = assay: Growth inhibition of human ACHN cells assessed as cell growth at 10 uM incubated for 48 hrs by sulforhodamine B assay relative to control
CAKI-1 = assay: Growth inhibition of human CAKI-1 cells assessed as cell growth at 10 uM incubated for 48 hrs by sulforhodamine B assay relative to control
RXF 393 = assay: Growth inhibition of human RXF 393 cells assessed as cell growth at 10 uM incubated for 48 hrs by sulforhodamine B assay relative to control
UO-31 = assay: Growth inhibition of human UO-31 cells assessed as cell growth at 10 uM incubated for 48 hrs by sulforhodamine B assay relative to control
PC-3 = assay: Growth inhibition of human PC-3 cells assessed as cell growth at 10 uM incubated for 48 hrs by sulforhodamine B assay relative to control
DU-145 = assay: Growth inhibition of human DU-145 cells assessed as cell growth at 10 uM incubated for 48 hrs by sulforhodamine B assay relative to control
MCF7 = assay: Growth inhibition of human MCF7 cells assessed as cell growth at 10 uM incubated for 48 hrs by sulforhodamine B assay relative to control
BT-549 = assay: Growth inhibition of human BT-549 cells assessed as cell growth at 10 uM incubated for 48 hrs by sulforhodamine B assay relative to control
T47D = assay: Growth inhibition of human T47D cells assessed as cell growth at 10 uM incubated for 48 hrs by sulforhodamine B assay relative to control
MDA-MB-468 = assay: Growth inhibition of human MDA-MB-468 cells assessed as cell growth at 10 uM incubated for 48 hrs by sulforhodamine B assay relative to control

`CC(=O)Nc1cccc(NC(=O)c2ccc(C(=O)Nc3cc(CO)cc(NC(C)=O)c3)cc2)c1` was tested, and the growth at 10 µM (CCRF-CEM) was 93%, the growth at 10 µM (HL-60(TB)) was 96.9% and the growth at 10 µM (K562) was 104%. For the same molecule, the growth at 10 µM (MOLT-4) was 92.7%, the growth at 10 µM (RPMI-8226) was 92% and the growth at 10 µM (HOP-62) was 106%. It also gave a growth at 10 µM (NCI-H23) of 105%, a growth at 10 µM (NCI-H322M) of 115% and a growth at 10 µM (NCI-H522) of 89.1%. It also gave a growth at 10 µM (COLO 205) of 111%, a growth at 10 µM (HCC 2998) of 102% and a growth at 10 µM (HCT-116) of 105%. It also gave a growth at 10 µM (HCT-15) of 104%, a growth at 10 µM (HT-29) of 109% and a growth at 10 µM (KM12) of 111%. It also gave a growth at 10 µM (SF-268) of 103%, a growth at 10 µM (SF-539) of 106% and a growth at 10 µM (SNB-19) of 112%. For the same molecule, the growth at 10 µM (SNB-75) was 94.9%, the growth at 10 µM (U-251) was 111% and the growth at 10 µM (Malme-3M) was 107%. For the same molecule, the growth at 10 µM (M14) was 101%, the growth at 10 µM (MDA-MB-435) was 105% and the growth at 10 µM (SK-MEL-2) was 88.1%. It also gave a growth at 10 µM (UACC-62) of 101%, a growth at 10 µM (IGROV-1) of 110% and a growth at 10 µM (OVCAR-3) of 126%. For the same molecule, the growth at 10 µM (OVCAR-5) was 108%, the growth at 10 µM (OVCAR-8) was 106% and the growth at 10 µM (SK-OV-3) was 103%. It also gave a growth at 10 µM (ACHN) of 106%, a growth at 10 µM (CAKI-1) of 111% and a growth at 10 µM (RXF 393) of 106%. The growth at 10 µM (UO-31) was 100%, the growth at 10 µM (PC-3) was 101% and the growth at 10 µM (DU-145) was 117%. It also gave a growth at 10 µM (MCF7) of 93.3%, a growth at 10 µM (BT-549) of 116% and a growth at 10 µM (T47D) of 86.2%. The growth at 10 µM (MDA-MB-468) was 110%.

For `CC(=O)Nc1cc(CO)cc(NC(=O)c2ccc(C(=O)Nc3cccc(NC(=O)CCCN(C)C)c3)cc2)c1`, the growth at 10 µM (CCRF-CEM) was 41.2%, the growth at 10 µM (HL-60(TB)) was 91.2% and the growth at 10 µM (K562) was 16.7%. It also gave a growth at 10 µM (MOLT-4) of 57.9%, a growth at 10 µM (RPMI-8226) of 95.6% and a growth at 10 µM (HOP-62) of 77.7%. The growth at 10 µM (NCI-H23) was 99.1%, the growth at 10 µM (NCI-H322M) was 98.5% and the growth at 10 µM (NCI-H522) was 79.5%. For the same molecule, the growth at 10 µM (COLO 205) was 76.3%, the growth at 10 µM (HCC 2998) was 97.7% and the growth at 10 µM (HCT-116) was 79%. For the same molecule, the growth at 10 µM (HCT-15) was 105%, the growth at 10 µM (HT-29) was 59.4% and the growth at 10 µM (KM12) was 83.1%. The growth at 10 µM (SF-268) was 79.4%, the growth at 10 µM (SF-539) was 88% and the growth at 10 µM (SNB-19) was 114%. The growth at 10 µM (SNB-75) was 62.2%, the growth at 10 µM (U-251) was 69.9% and the growth at 10 µM (Malme-3M) was 17.6%. For the same molecule, the growth at 10 µM (M14) was 81%, the growth at 10 µM (MDA-MB-435) was 70% and the growth at 10 µM (SK-MEL-2) was 91.8%. For the same molecule, the growth at 10 µM (UACC-62) was 64.6%, the growth at 10 µM (IGROV-1) was 87.4% and the growth at 10 µM (OVCAR-3) was 119%. The growth at 10 µM (OVCAR-5) was 109%, the growth at 10 µM (OVCAR-8) was 105% and the growth at 10 µM (SK-OV-3) was 117%. For the same molecule, the growth at 10 µM (ACHN) was 92.8%, the growth at 10 µM (CAKI-1) was 101% and the growth at 10 µM (RXF 393) was 113%. The growth at 10 µM (UO-31) was 112%, the growth at 10 µM (PC-3) was 98.6% and the growth at 10 µM (DU-145) was 105%. It also gave a growth at 10 µM (MCF7) of 25.2%, a growth at 10 µM (BT-549) of 108% and a growth at 10 µM (T47D) of 82.4%. The growth at 10 µM (MDA-MB-468) was 83.8%.

In the case of `CC(=O)Nc1cc(CO)cc(NC(=O)c2ccc(C(=O)NCCCN3CCOCC3)cc2)c1`, the growth at 10 µM (CCRF-CEM) is reported as 94.9%, the growth at 10 µM (HL-60(TB)) is reported as 107% and the growth at 10 µM (K562) is reported as 103%. The growth at 10 µM (MOLT-4) was 94.4%, the growth at 10 µM (RPMI-8226) was 95.3% and the growth at 10 µM (HOP-62) was 105%. For the same molecule, the growth at 10 µM (NCI-H23) was 100%, the growth at 10 µM (NCI-H322M) was 105% and the growth at 10 µM (NCI-H522) was 91.1%. It also gave a growth at 10 µM (COLO 205) of 106%, a growth at 10 µM (HCC 2998) of 100% and a growth at 10 µM (HCT-116) of 105%. The growth at 10 µM (HCT-15) was 103%, the growth at 10 µM (HT-29) was 115% and the growth at 10 µM (KM12) was 113%. For the same molecule, the growth at 10 µM (SF-268) was 109%, the growth at 10 µM (SF-539) was 97.3% and the growth at 10 µM (SNB-19) was 107%. It also gave a growth at 10 µM (SNB-75) of 90.2%, a growth at 10 µM (U-251) of 99.5% and a growth at 10 µM (Malme-3M) of 106%. It also gave a growth at 10 µM (M14) of 98.9%, a growth at 10 µM (MDA-MB-435) of 103% and a growth at 10 µM (SK-MEL-2) of 94.3%. For the same molecule, the growth at 10 µM (UACC-62) was 101%, the growth at 10 µM (IGROV-1) was 110% and the growth at 10 µM (OVCAR-3) was 118%. It also gave a growth at 10 µM (OVCAR-5) of 103%, a growth at 10 µM (OVCAR-8) of 103% and a growth at 10 µM (SK-OV-3) of 106%. For the same molecule, the growth at 10 µM (ACHN) was 108%, the growth at 10 µM (CAKI-1) was 109% and the growth at 10 µM (RXF 393) was 108%. It also gave a growth at 10 µM (UO-31) of 100%, a growth at 10 µM (PC-3) of 100% and a growth at 10 µM (DU-145) of 113%. It also gave a growth at 10 µM (MCF7) of 102%, a growth at 10 µM (BT-549) of 94.2% and a growth at 10 µM (T47D) of 108%. For the same molecule, the growth at 10 µM (MDA-MB-468) was 96%.

Source: ChEMBL document CHEMBL4715697, “Synthesis and biological activity of benzamide DNA minor groove binders” (2016)
